According to patent US20030049305A1, “Preserved feedstuffs and process for their production” (priority 2001, published 2003):

Tests used:
[1] = system: S. typhimurium NCTC 10527; test: Bacterial count in whey powder paste inoculated with Salmonella typhimurium, with LAE added; assay type: cell-based; settings: inoculum approximately 3×10^4/g, whey powder paste pH 6.1-6.2
Description: (§1) The invention is described in more detail by the examples below. In these examples partially desugared whey powder is used, a constituent of many feedstuffs which was set to the pH range of 6.1-6.2 which is favorable for the growth of many bacteria. The whey powder was made into a paste using aqueous buffer solution, so that together with the bacterial suspension in physiological saline a ratio of whey powder to water of approximately 2:1 resulted. LAE was added to the samples at concentrations of 200, 400 and 800 mg/kg, while a control sample received no addition. The bacterial count was determined in a conventional manner in the resultant pastes immediately after their preparation, after 24 h and after 48 h of storage at room temperature.
Effect on Salmonella typhimurium (approximately 3×10^4/g)
A paste of whey powder prepared in the manner described was inoculated with approximately 3×10^4/g S. typhimurium NCTC 10527.

E. coli O0157:H7 EDL 933 = test: Bacterial count in whey powder paste inoculated with E. coli O157:H7, with LAE added; assay type: cell-based, Escherichia coli O157:H7; settings: whey powder paste pH 6.1-6.2; for bacterial count after 48 h as % of the value on addition: 800 mg of LAE/kg, 48 h storage at room temperature; for change of bacterial count versus control sample without LAE: LAE 200, 400 and 800 mg/kg, after 24 h, continued with longer storage at room temperature
Description: as §1
Effect on Escherichia coli O157:H7 (approximately 6×10^5/g)
A paste of whey powder prepared in the manner described was inoculated with approximately 6×10^5/g of E. coli O0157:H7 EDL 933. […] At an addition of 800 mg of LAE/kg, the bacterial count after 48 h was less than 10% of the value on addition.
Effect on Escherichia coli O157:H7 (approximately 3×1 0^3/g)
A paste of whey powder prepared in the manner described was inoculated with approximately 3×10^3/g of E. coli O0157:H7 EDL 933. […] At an addition of 800 mg of LAE/kg, the bacterial count after 48 h was less than 10% of the value on addition.

[2] = system: L. monocytogenes ATCC 13311; test: Bacterial count in whey powder paste inoculated with Listeria monocytogenes, with LAE added; assay type: cell-based; settings: whey powder paste pH 6.1-6.2; for bacterial count after 48 h as % of the value on addition: 800 mg of LAE/kg, 48 h storage at room temperature; for change of bacterial count versus control sample without LAE: LAE 200, 400 and 800 mg/kg, after 24 h, continued with longer storage at room temperature
Description: as §1
Effect on Listeria monocytogenes (approximately 5×10^5/g)
A paste of whey powder prepared in the manner described was inoculated with approximately 5×10^5/g L. monocytogenes ATCC 13311. […] At an addition of 800 mg of LAE/kg, the bacterial count after 48 h was approximately 15% of the value on addition.
Effect on Listeria monocytogenes (approximately 2×10^3/g)
A paste of whey powder prepared in the manner described was inoculated with approximately 2×10^3/g L. monocytogenes ATCC 13311. […] At an addition of 800 mg of LAE/kg, the bacterial count after 48 h was less than 20% of the value on addition.

[3] = inoculum approximately 3×10^3/g
[4] = inoculum approximately 6×10^5/g
[5] = inoculum approximately 2×10^3/g
[6] = inoculum approximately 5×10^5/g

CCCCCCCCCCCC(=O)N[C@@H](CCCNC(=N)N)C(=O)OCC [LAE, lauroylarginine ethyl ester]
detectability of test bacteria after 48 h ([1]; 800 mg of LAE/kg, 48 h storage at room temperature): no longer detectable | change of bacterial count versus control sample without LAE ([1]; LAE 200, 400 and 800 mg/kg, after 24 h, continued with longer storage at room temperature): much more marked concentration-dependent decrease | bacterial count after 48 h as % of the value on addition (E. coli O0157:H7 EDL 933; [3]): less than 10% | change of bacterial count versus control sample without LAE (E. coli O0157:H7 EDL 933; [3]): much more marked concentration-dependent decrease | bacterial count after 48 h as % of the value on addition (E. coli O0157:H7 EDL 933; [4]): less than 10% | change of bacterial count versus control sample without LAE (E. coli O0157:H7 EDL 933; [4]): marked concentration-dependent decrease | bacterial count after 48 h as % of the value on addition [2, 5]: less than 20% | change of bacterial count versus control sample without LAE [2, 5]: more marked concentration-dependent decrease | bacterial count after 48 h as % of the value on addition [2, 6]: approximately 15% | change of bacterial count versus control sample without LAE [2, 6]: more marked concentration-dependent decrease
